Results on 5 compounds are retold here after patent publication US20240101563A1, “NOVEL COMPOUNDS” (AC Immune SA, priority 2022, published 2024).

One may read the IC50 as the concentration that inhibits the measured activity by half.

Assay [1] has as its system IL-1β. Kind of assay: Inhibition of IL-1β in an LPS/ATP induced acute peritonitis mouse model. Format: in vivo. To be noted: BALB/c mice; dosed 30 min before LPS i.p.; ATP i.p. 120 min after LPS; PW 30 min post ATP; vs LPS-ATP, 0 mg/kg. The protocol:
1.2.1 The efficacy of Example compounds 53 and 18 in an LPS/ATP-induced acute peritonitis was evaluated: LPS (Lipopolysaccharide) and ATP (Adenosine triphosphate) were administered to BALB/c mice by intraperitoneal (i.p.) injection to elicit an acute inflammatory response in the peritoneal cavity.
Mice (BALB/c mice, aged 6-8 w, females) were challenged with 50 μg/kg LPS by intraperitoneal (i.p.) injection. 120 min after LPS administration, ATP was delivered by i.p. injection at 50 mM in 200 μL. […]
Cytometric Bead Array (CBA) Assay for IL-1β detection was performed on the peritoneal wash supernatant as follows: supernatants or cytokine standards were incubated with the capture beads mixture for 1 hour at room temperature. […] After washing in Wash Buffer containing 1×PBS, blocking protein, and detergent, the beads were re-suspended and analyzed by flow cytometry.
The cytokine analysis raw data were analyzed using FACP. […] Data were expressed as the Mean±SD. […]

For assay [2], the system named is NLRP3 inflammasome pathway. Nature of the assay: NLRP3 inflammasome pathway activation assay, MSU stimulation, IL-1β HTRF. Format: cell-based. Particulars: Homo sapiens, 3 h, Table 7; PMA-differentiated, LPS-primed cells; MSU 200 μg/mL for 3 h; IL-1β release; read-out: IC50 Human monocyte-like cells MSU. The essentials:
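Human monocyte-like cells differentiated overnight with 10 ng/mL PMA, primed 3 h with 10 ng/mL LPS, given compound ([…]) 30 min before 3 h stimulation with Nigericin 3.75 μM or MSU 200 μg/mL. Supernatant IL-1β quantified by HTRF; IC50 at 50% inhibition.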
A general note: In TR-FRET formats the signal depends on donor and acceptor labels being close together.

Assay [3] has as its system NLRP3 inflammasome pathway. Kind of assay: NLRP3 inflammasome pathway activation assay, Nigericin stimulation, IL-1β HTRF. Format: cell-based. Particulars: Homo sapiens, 3 h, Table 7; PMA-differentiated, LPS-primed cells; Nigericin 3.75 μM for 3 h; IL-1β release; read-out: IC50 Human monocyte-like cells Nigericin. The protocol: The following assays were used to determine the inhibitory activity of test compounds on the NLRP3 inflammasome pathway using common stimuli Nigericin (Invivogen) or monosodium urate crystals (MSU) (Invivogen).
Human monocyte-like cells were cultured in RPMI-1640 Glutamax medium supplemented with 10% heat inactivated FBS (Fetal Bovine Serum) and 50 U/mL penicillin-streptomycin (Life Technologies).
Human monocyte-like cells were seeded at 25000 per well in a 384-well plate and were differentiated overnight into macrophages with 10 ng/mL PMA (Phorbol Myristate Acetate). The following day, medium containing 10 ng/mL LPS (Lipopolysaccharide) was added. After 3 hours of LPS priming, concentrations of test compound in the range from […] were added 30 min prior to NLRP3 inflammasome pathway stimulation with Nigericin 3.75 μM or MSU 200 μg/mL for 3 h.
For IL-1p quantification, supernatants were analyzed using HTRF kit according to the manufacturer's instructions (Cisbio 62HIL1BPEH). Briefly, in a 384-well ProxiPlate™ microplate, 8 μl of sample was mixed, with 5 μl of Anti-IL1β Cryptate antibody (40×) and Anti-IL1β XL antibody (40×). Then, incubated overnight at RT. Reading was done using an EnVision Reader (PerkinElmer).
IC50 (concentration corresponding to 50% inhibition) were determined using GraphPad Prism 9.

On to `Cc1cc(C(F)(F)F)cc(O)c1-c1nc2nc(NC3CCN(C)C3)ccc2n1C` (racemic) [Example 18, 3-methyl-2-(1-methyl-5-((1-methylpyrrolidin-3-yl)amino)-1H-imidazo[4,5-b]pyridin-2-yl)-5-(trifluoromethyl)phenol], for which, in assay [1], the “IL-1β release in peritoneal wash (PW)” value is reported as “significantly reduced IL-1p release in PW in a dose response manner”.

In the case of `Cc1cc(C(F)(F)F)cc(O)c1-c1nc2nc(OC3CCN(C)C3)cnc2n1C` (single isomer, unassigned) [Example 53, 3-methyl-2-(1-methyl-5-((1-methylpyrrolidin-3-yl)oxy)-1H-imidazo[4,5-b]pyrazin-2-yl)-5-(trifluoromethyl)phenol], the IC50 in assay [2] was < 100 nM. Also, in assay [1], the “IL-1β release in peritoneal wash (PW)” value is “significantly reduced IL-1β release in PW in a dose response manner”.

Regarding `CCn1c(-c2c(C)cc(C(F)(F)F)cc2O)nc2nc(OCCO)ccc21` [Example 32, 2-(1-ethyl-5-(2-hydroxyethoxy)-1H-imidazo[4,5-b]pyridin-2-yl)-3-methyl-5-(trifluoromethyl)phenol], the IC50 was < 100 nM in assay [2] and 100 to 1000 nM in assay [3].

With `CN1CCC[C@@H](Oc2ccc3c(n2)nc(-c2ccc(C(F)(F)F)cc2O)n3C)C1` [Example 25, (R)-2-(1-methyl-5-((1-methylpiperidin-3-yl)oxy)-1H-imidazo[4,5-b]pyridin-2-yl)-5-(trifluoromethyl)phenol], the results for the 50% inhibitory concentration (IC50) in assay [2] and in assay [3] were < 100 nM and 100 to 1000 nM, respectively.

Regarding `COc1ccc2c(n1)nc(-c1c(C)cc(C(F)(F)F)cc1O)n2C` [Example 23], the figures for the IC50 in assay [2] and in assay [3] were < 100 nM and 100 to 1000 nM, respectively.
